Data from patent publication US20240415989A1, “RADIOLABELED COMPOUND, AND PRECURSOR COMPOUND THEREOF, PREPARATION METHOD THEREFOR, AND APPLICATION THEREOF” (priority 2021, published 2024).

Experiments:
[1] = In vitro stability in normal saline (radiochemical purity by TLC); assay type: physicochemical
Experimental: Four EP tubes were taken and marked as numbers (1) to (4) in sequence, in which 0.1 ml of normal saline was added to numbers (1) and (2), respectively, 0.1 ml of fresh human serum diluted 10 times was added to numbers (3) and (4), respectively, and then 1.0 mci of freshly prepared ^68Ga-DOTA-ibandronic acid was added to these 4 tubes, respectively. Numbers (1) and (3) were placed at room temperature (25±2° C.) and numbers (2) and (4) were placed in a 37° C. metal bath for incubation. The radiochemical purity values of numbers (1) to (4) were measured using a thin layer paper chromatography (TLC) at 10 min, 30 min, 1 h, 2 h, 3 h, 4 h, respectively.

plasma protein = assay type: in vitro ADME; conditions: human
Experimental: 1 mL of fresh human plasma anticoagulated with heparin was taken for later use. Three EP tubes were taken and numbered as A-(1), A-(2), and A-(3), and were each added with 0.1 ml of fresh human plasma and 0.25 ml of freshly prepared ^68Ga-DOTA-ibandronic acid with about 0.5 mci. Then they were incubated in a metal bath at 37° C. for 30 minutes. Three 5 ml centrifuge tubes were taken and numbered as B-(1), B-(2), and B-(3). The incubated solutions were transferred to the corresponding centrifuge tubes, respectively. Then 1 ml of 25% trichloroacetic acid solution was added to each centrifuge tube, mixed thoroughly, then centrifuged at 2000 r/min for 5 minutes. The supernatants were respectively collected into 3 corresponding test tubes (numbered as C-(1), C-(2), C-(3), respectively). The centrifugation and supernatant collection were repeated 3 times. The total radioactivity count of the precipitations in the centrifuge tubes and that of the supernatants in the test tubes were measured by a γ counter, respectively, and the plasma protein binding rate (PPB) was calculated.

[2] = Lipid-water distribution coefficient (n-octanol/deionized water); assay type: physicochemical
Experimental: Three 5 ml centrifuge tubes were taken, and numbered as A-(1), A-(2) and A-(3), respectively. 0.5 ml of n-octanol, 0.485 ml of deionized water and 0.25 ml of freshly prepared ^68Ga-DOTA-ibandronic acid with about 0.5 mci were added to each tube, and the centrifuge tubes were shaken by a vortex mixer for 20 minutes, then centrifuged at 2000 r/min for 5 minutes, from which 0.1 ml of upper liquid (organic phase) was respectively collected into 3 corresponding test tubes (numbered as B-(1), B-(2), B-(3), respectively), and 0.1 ml of lower liquid (aqueous phase) was respectively collected into 3 corresponding test tubes (numbered as C-(1), C-(2), C-(3), respectively). The total radioactivity count of the organic phase and that of the aqueous phase were measured by γ counter, respectively, and the lipid-water distribution coefficient lgP was calculated by formula.

[3] = tested on: PC-3, H1975, MDA-MB-231 bone metastasis models; assay: Therapeutic effect on tumor-bearing mice, free movement pain behavior scoring; assay type: in vivo, nude mice
Experimental: In this experimental example, the therapeutic effects of ^177Lu-DOTA-ibandronic acid of the present disclosure on tumor-bearing mice (PC-3, H1975, MDA-MB-231 bone metastasis models) were investigated. The ^177Lu-DOTA-ibandronic acid used in this experimental example was prepared according to the method of Example 6.
(1) Establishment of tumor-bearing mouse models: 24 SPF male nude mice and 12 SPF female nude mice were taken, and anesthetized with isoflurane. Then the skin around the left knee joint was disinfected, and the left hind limb was bent. An insulin needle (29G needle) was inserted into the tibia vertically from concave point of the articular fossa of the tibia, slowly rotated and inserted into the medullary cavity, to inject 25 μl of cell culture (approximately 2×10^6) of PC-3 (12 males), H1975 (12 males), and MDA-MB-231 (12 females). Then disinfection was carried out, and the holes were sealed with sterile bone wax. The animals were placed on a 37° C. hot-plate for rewarming. After resuscitation, they were returned to the cage and continued to be raised.
(2) Testing of tumor-bearing mouse models: After 4 weeks of inoculation, 36 nude mice were scanned using Micro-CT, respectively.
(3) Methods of different treatments and grouping: The 36 successfully modelled tumor-bearing mice were randomly divided into 4 groups. Among them, 2 groups were injected with ^177Lu-DOTA-ibandronic acid with low and high radioactivity (100 μCi, 500 μCi) into the tail vein, respectively, 3 animals in each group; and the animals in the blank control groups were injected with normal saline, and divided into a small volume group and a large volume group (10 μl, 50 μl), 3 animals in each group.
(4) Detection and results of treatment effect: Free movement pain behavior scoring was carried out on days 0, 7, 14, 21, 28, and 35, and used as the main indicator of bone pain relief in the tumor-bearing mice. At the corresponding time points, the tumor-bearing mice were placed in a transparent smooth flat-bottomed plastic box. […]

[4] = high activity 500 μCi, compared with all groups

Row | SMILES | Radiochemical purity ([1]; 37° C., 10 min) [%] | Radiochemical purity ([1]; 37° C., 30 min) [%] | Radiochemical purity ([1]; 37° C., 1 h) [%] | Radiochemical purity ([1]; 37° C., 2 h) [%] | Radiochemical purity ([1]; 37° C., 3 h) [%] | Radiochemical purity ([1]; 37° C., 4 h) [%] | Radiochemical purity ([1]; room temperature, 10 min) [%] | Radiochemical purity ([1]; room temperature, 30 min) [%] | Radiochemical purity ([1]; room temperature, 1 h) [%] | Radiochemical purity ([1]; room temperature, 2 h) [%] | Radiochemical purity ([1]; room temperature, 3 h) [%] | Radiochemical purity ([1]; room temperature, 4 h) [%] | plasma protein binding rate (PPB) (plasma protein) [%] | lipid-water distribution coefficient lgP [2] | therapeutic efficacy versus control group ([3]; different doses (100 μCi, 500 μCi) versus normal saline) | bone pain relief [3, 4] | survival rate within 5 weeks of administration [3, 4]
1 | CN(CCCCNC(=O)CN1CCN(CC(=O)O)CCN(CC(=O)O)CCN(CC(=O)O)CC1)CCC(O)(P(=O)(O)O)P(=O)(O)O.[68Ga] [^68Ga-DOTA-ibandronic acid] | 99 | 96 | 96 | 92 | 90 | 87 | 98 | 97 | 95 | 95 | 95 | 93 | 81 | −2.33 |  |  | 
2 | CN(CCCCNC(=O)CN1CCN(CC(=O)O)CCN(CC(=O)O)CCN(CC(=O)O)CC1)CCC(O)(P(=O)(O)O)P(=O)(O)O.[177Lu] [^177Lu-DOTA-ibandronic acid] |  |  |  |  |  |  |  |  |  |  |  |  |  |  | higher than that of the corresponding control group | relieved to the greatest extent | relatively highest
